In patent US9957268B2, “1H-pyrrolo[2,3,c]pyridin-7(6H)-ones and pyrazolo[3,4-c]pyridin-7(6H)-ones as inhibitors of BET proteins” (Incyte Corporation, priority 2014, dated 2018):

Experiments:
[1] = target: BRD4-BD2 (Homo sapiens (Human), UniProt O60885); experiment: BRD4 AlphaScreen assay (BRD4-BD2); assay type: binding; details: biotin-labeled tetra-acetylated histone H4 peptide
Summary of the method: (§1)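 AlphaScreen displacement at room temperature: 75 min with biotin-H4Ac4 peptide (50 nM) and sub-nanomolar BRD4-BD1 or BD2, then 75 min dark incubation with donor/acceptor beads (2-4 μg/mL). Buffer Tris-HCl pH 7.5 with Tween-20, BSA, DTT; DMSO 1.25% for BD1, 0.83% for BD2. IC50 by curve fitting.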

[2] = target: BRD4-BD1 (Homo sapiens (Human), UniProt O60885); experiment: BRD4 AlphaScreen assay (BRD4-BD1); assay type: binding; details: biotin-labeled tetra-acetylated histone H4 peptide
Summary of the method: as §1

## Cn1cc(-c2cccc3c2OC(c2ccccc2)C(=O)N3)c2cc[nH]c2c1=O (centres unmarked) [Example 1, 8-(6-methyl-7-oxo-6,7-dihydro-1H-pyrrolo[2,3-c]pyridin-4-yl)-2-phenyl-2H-1,4-benzoxazin-3(4H)-one]
[1]
  IC50: ≤ 100 nM
[2]
  IC50: ≤ 100 nM

## CCS(=O)(=O)c1cc2c(c(-c3cn(C)c(=O)c4[nH]ccc34)c1)OC(C(C)C)C(=O)N2 (centres unmarked) [Example 51, 6-(ethylsulfonyl)-2-isopropyl-8-(6-methyl-7-oxo-6,7-dihydro-1H-pyrrolo[2,3-c]pyridin-4-yl)-2H-1,4-benzoxazin-3(4H)-one]
[1]
  IC50: ≤ 100 nM
[2]
  IC50: ≤ 100 nM

## Cn1cc(-c2cc(S(C)(=O)=O)cc3c2NC2(CCC2)C(=O)N3)c2cc[nH]c2c1=O [Example 62, 8′-(6-methyl-7-oxo-6,7-dihydro-1H-pyrrolo[2,3-c]pyridin-4-yl)-6′-(methylsulfonyl)-1′,4′-dihydro-3′H-spiro[cyclobutane-1,2′-quinoxalin]-3′-one]
[1]
  IC50: ≤ 100 nM
[2]
  IC50: ≤ 100 nM

## COc1cc2c(c(-c3cn(C)c(=O)c4[nH]ccc34)c1)OC(c1ccccc1)C(=O)N2 (single isomer, unassigned) [Example 24A, 6-methoxy-8-(6-methyl-7-oxo-6,7-dihydro-1H-pyrrolo[2,3-c]pyridin-4-yl)-2-phenyl-2H-1,4-benzoxazin-3(4H)-one]
[1]
  IC50: ≤ 100 nM
[2]
  IC50: ≤ 100 nM

## Cn1cc(-c2cccc3c2OC(c2ccccn2)C(=O)N3)c2cc[nH]c2c1=O (centres unmarked) [Example 5, 8-(6-methyl-7-oxo-6,7-dihydro-1H-pyrrolo[2,3-c]pyridin-4-yl)-2-pyridin-2-yl-2H-1,4-benzoxazin-3(4H)-one 2,2,2-trifluoroacetate]
[1]
  IC50: ≤ 100 nM
[2]
  IC50: 100 to 1000 nM

## CC(C)C1Oc2c(cccc2-c2cn(C)c(=O)c3[nH]ccc23)NC1=O (centres unmarked) [Example 2, 2-isopropyl-8-(6-methyl-7-oxo-6,7-dihydro-1H-pyrrolo[2,3-c]pyridin-4-yl)-2H-1,4-benzoxazin-3(4H)-one]
[1]
  IC50: ≤ 100 nM
[2]
  IC50: ≤ 100 nM

## CC(C)C1Oc2c(cc(C(N)=O)cc2-c2cn(C)c(=O)c3[nH]ccc23)NC1=O (centres unmarked) [Example 41, 2-isopropyl-8-(6-methyl-7-oxo-6,7-dihydro-1H-pyrrolo[2,3-c]pyridin-4-yl)-3-oxo-3,4-dihydro-2H-1,4-benzoxazine-6-carboxamide]
[1]
  IC50: ≤ 100 nM
[2]
  IC50: ≤ 100 nM

## COc1cc2c(c(-c3cn(C)c(=O)c4[nH]ccc34)c1)OC(C1CCCC1)C(=O)N2 (single isomer, unassigned) [Example 35A, 2-Cyclopentyl-6-methoxy-8-(6-methyl-7-oxo-6,7-dihydro-1H-pyrrolo[2,3-c]pyridin-4-yl)-2H-1,4-benzoxazin-3(4H)-one]
[1]
  IC50: ≤ 100 nM
[2]
  IC50: ≤ 100 nM

## CC(C)C1Oc2c(-c3cn(C)c(=O)c4[nH]ccc34)cc(S(=O)(=O)N(C)C)cc2N(C)C1=O (centres unmarked) [Example 71, 2-isopropyl-N,N,4-trimethyl-8-(6-methyl-7-oxo-6,7-dihydro-1H-pyrrolo[2,3-c]pyridin-4-yl)-3-oxo-3,4-dihydro-2H-1,4-benzoxazine-6-sulfonamide]
[1]
  IC50: ≤ 100 nM
[2]
  IC50: ≤ 100 nM

## COc1cc2c(c(-c3cn(C)c(=O)c4[nH]ccc34)c1)OC(c1ccc(F)cc1Cl)C(=O)N2 (centres unmarked) [Example 25, 2-(2-chloro-4-fluorophenyl)-6-methoxy-8-(6-methyl-7-oxo-6,7-dihydro-1H-pyrrolo[2,3-c]pyridin-4-yl)-2H-1,4-benzoxazin-3(4H)-one]
[1]
  IC50: ≤ 100 nM
[2]
  IC50: ≤ 100 nM

## CC(C)[C@H]1Nc2c(cc(S(C)(=O)=O)cc2-c2cn(C)c(=O)c3[nH]ccc23)NC1=O [Example 61, (3R)-3-isopropyl-5-(6-methyl-7-oxo-6,7-dihydro-1H-pyrrolo[2,3-c]pyridin-4-yl)-7-(methylsulfonyl)-3,4-dihydroquinoxalin-2(1H)-one]
[1]
  IC50: ≤ 100 nM
[2]
  IC50: ≤ 100 nM

## CC(O)c1cc2c(c(-c3cn(C)c(=O)c4[nH]ccc34)c1)OC(C(C)C)C(=O)N2 (centres unmarked) [Example 50, 6-(1-hydroxyethyl)-2-isopropyl-8-(6-methyl-7-oxo-6,7-dihydro-1H-pyrrolo[2,3-c]pyridin-4-yl)-2H-1,4-benzoxazin-3(4H)-one]
[1]
  IC50: ≤ 100 nM
[2]
  IC50: ≤ 100 nM

## CC(C)C1Oc2c(cc(C#N)cc2-c2cn(C)c(=O)c3[nH]ccc23)NC1=O (centres unmarked) [Example 17, 2-isopropyl-8-(6-methyl-7-oxo-6,7-dihydro-1H-pyrrolo[2,3-c]pyridin-4-yl)-3-oxo-3,4-dihydro-2H-1,4-benzoxazine-6-carbonitrile]
[1]
  IC50: ≤ 100 nM
[2]
  IC50: 100 to 1000 nM

## CC(C)C1Oc2c(-c3cn(C)c(=O)c4[nH]ccc34)cc(S(C)(=O)=O)cc2N(CC2CC2)C1=O (centres unmarked) [Example 53, 4-(cyclopropylmethyl)-2-isopropyl-8-(6-methyl-7-oxo-6,7-dihydro-1H-pyrrolo[2,3-c]pyridin-4-yl)-6-(methyslulfonyl)-2H-1,4-benzoxazin-3(4H)-one]
[1]
  IC50: ≤ 100 nM
[2]
  IC50: ≤ 100 nM

## CCC1Oc2c(cccc2-c2cn(C)c(=O)c3[nH]ccc23)NC1=O (centres unmarked) [Example 4, 2-ethyl-8-(6-methyl-7-oxo-6,7-dihydro-1H-pyrrolo[2,3-c]pyridin-4-yl)-2H-1,4-benzoxazin-3(4H)-one]
[1]
  IC50: ≤ 100 nM
[2]
  IC50: 100 to 1000 nM

## CCS(=O)(=O)NCc1cc2c(c(-c3cn(C)c(=O)c4[nH]ccc34)c1)OC(C(C)C)C(=O)N2 (centres unmarked) [Example 39, N-{[2-isopropyl-8-(6-methyl-7-oxo-6,7-dihydro-1H-pyrrolo[2,3-c]pyridin-4-yl)-3-oxo-3,4-dihydro-2H-1,4-benzoxazin-6-yl]methyl}ethanesulfonamide]
[1]
  IC50: ≤ 100 nM
[2]
  IC50: ≤ 100 nM

## Cn1cc(-c2cc(S(C)(=O)=O)cc3c2OC2(CC2)C(=O)N3)c2cn[nH]c2c1=O [Example 65, 8-(6-methyl-7-oxo-6,7-dihydro-1H-pyrazolo[3,4-c]pyridin-4-yl)-6-(methylsulfonyl)spiro[1,4-benzoxazine-2,1′-cyclopropan]-3(4H)-one]
[1]
  IC50: ≤ 100 nM
[2]
  IC50: ≤ 100 nM

## Cn1cc(-c2cccc3c2NC(C)(C)C(=O)N3)c2cc[nH]c2c1=O [Example 32, 3,3-dimethyl-5-(6-methyl-7-oxo-6,7-dihydro-1H-pyrrolo[2,3-c]pyridin-4-yl)-3,4-dihydroquinoxalin-2(1H)-one]
[1]
  IC50: ≤ 100 nM
[2]
  IC50: 100 to 1000 nM

## CC(C)C1Oc2c(cc(C(=O)N(C)C)cc2-c2cn(C)c(=O)c3[nH]ccc23)NC1=O (centres unmarked) [Example 34, 2-isopropyl-N,N-dimethyl-8-(6-methyl-7-oxo-6,7-dihydro-1H-pyrrolo[2,3-c]pyridin-4-yl)-3-oxo-3,4-dihydro-2H-1,4-benzoxazine-6-carboxamide]
[1]
  IC50: ≤ 100 nM
[2]
  IC50: ≤ 100 nM

## CC(C)C1Oc2c(cc(CN)cc2-c2cn(C)c(=O)c3[nH]ccc23)NC1=O (centres unmarked) [Example 38, 6-(Aminomethyl)-2-isopropyl-8-(6-methyl-7-oxo-6,7-dihydro-1H-pyrrolo[2,3-c]pyridin-4-yl)-2H-1,4-benzoxazin-3(4H)-one]
[1]
  IC50: ≤ 100 nM
[2]
  IC50: 100 to 1000 nM

## COc1cc2c(c(-c3cn(C)c(=O)c4[nH]ccc34)c1)OC(C(C)C)C(=O)N2 (single isomer, unassigned) [Example 9B, 2-isopropyl-6-methoxy-8-(6-methyl-7-oxo-6,7-dihydro-1H-pyrrolo[2,3-c]pyridin-4-yl)-2H-1,4-benzoxazin-3(4H)-one]
[1]
  IC50: ≤ 100 nM
[2]
  IC50: ≤ 100 nM

## Cn1cc(-c2cccc3c2OC(C2CC2)C(=O)N3)c2cc[nH]c2c1=O (centres unmarked) [Example 6, 2-cyclopropyl-8-(6-methyl-7-oxo-6,7-dihydro-1H-pyrrolo[2,3-c]pyridin-4-yl)-2H-1,4-benzoxazin-3(4H)-one]
[1]
  IC50: ≤ 100 nM
[2]
  IC50: ≤ 100 nM

## CC(C)C1Oc2c(-c3cn(C)c(=O)c4[nH]ccc34)cc(C(N)=O)cc2N(C)C1=O (centres unmarked) [Example 19, 2-isopropyl-4-methyl-8-(6-methyl-7-oxo-6,7-dihydro-1H-pyrrolo[2,3-c]pyridin-4-yl)-3-oxo-3,4-dihydro-2H-1,4-benzoxazine-6-carboxamide]
[1]
  IC50: ≤ 100 nM
[2]
  IC50: 100 to 1000 nM

## CC(C)C1Oc2c(cc(S(C)(=O)=O)cc2-c2cn(C)c(=O)c3[nH]ccc23)NC1=O (single isomer, unassigned) [Example 44A, 2-isopropyl-8-(6-methyl-7-oxo-6,7-dihydro-1H-pyrrolo[2,3-c]pyridin-4-yl)-6-(methylsulfonyl)-2H-1,4-benzoxazin-3(4H)-one]
[1]
  IC50: ≤ 100 nM
[2]
  IC50: ≤ 100 nM

## CC(O)c1cc2c(c(-c3cn(C)c(=O)c4[nH]ccc34)c1)OC(C)(C)C(=O)N2 (centres unmarked) [Example 81, 6-(1-hydroxyethyl)-2,2-dimethyl-8-(6-methyl-7-oxo-6,7-dihydro-1H-pyrrolo[2,3-c]pyridin-4-yl)-2H-1,4-benzoxazin-3(4H)-one]
[1]
  IC50: ≤ 100 nM
[2]
  IC50: ≤ 100 nM

## CC(C)C1Oc2c(cc([N+](=O)[O-])cc2-c2cn(C)c(=O)c3[nH]ccc23)NC1=O (centres unmarked) [Example 21, 2-isopropyl-8-(6-methyl-7-oxo-6,7-dihydro-1H-pyrrolo[2,3-c]pyridin-4-yl)-6-nitro-2H-1,4-benzoxazin-3(4H)-one]
[1]
  IC50: ≤ 100 nM
[2]
  IC50: 100 to 1000 nM

## CN1C(=O)C2(CC2)Oc2c(-c3cn(C)c(=O)c4[nH]ncc34)cc(S(C)(=O)=O)cc21 [Example 66, 4-methyl-8-(6-methyl-7-oxo-6,7-dihydro-1H-pyrazolo[3,4-c]pyridin-4-yl)-6-(methylsulfonyl)spiro[1,4-benzoxazine-2,1′-cyclopropan]-3(4H)-one]
[1]
  IC50: ≤ 100 nM
[2]
  IC50: ≤ 100 nM
